The source of these data is US9023356B2, “Treatment method using EGFR antibodies and SRC inhibitors and related formulations” (Ludwig Institute for Cancer Research Ltd, priority 2007, dated 2015).

Read-outs that look alike come from different tables or passages of the source.

Assay [1] has as its system Glioma cell lines in vitro. The conditions noted are these: full text: Resistant glioma expresses IGFR-1 which is further up-regulated by AG1478; effect appears mediated through PI3-K/Akt; single cell line in vitro; cited from earlier work.
Assay [2] concerns BT474 breast and MKN7 gastric cancer cells in vitro. The conditions noted are these: full text: Activation of erbB2/3 heterodimers by heregulin generated resistance; no in vivo data; cited from earlier work.
Assay [3] has as its system Patients with NSCLC. To be noted: full text: A secondary mutation in EGFR kinase causes resistance; cited from earlier work.
Assay [4] concerns Multiple cell lines in vitro. The conditions noted are these: full text: Sensitivity correlated with wt EGFR number; no in vivo data; cited from earlier work.
Assay [5] deals with Multiple cell lines in vitro. The conditions noted are these: full text: Sustained signaling through Akt or Erk may cause resistance; no in vivo data; cited from earlier work.
Assay [6] concerns de2-7 EGFR phosphorylation in U87MG glioma cells. Briefly: Immunoblotting of de2-7 EGFR phosphorylation after Src-family kinase inhibitors. The conditions noted are these: 10 μM, 30 minutes or 24 h, serum starved cells. Format: cell-based. The procedure:
FIG. 7A-7C. Interaction between de2-7 EGFR and Src. (A) Cells were serum starved overnight prior to treatment with 10 μM PP1 or PP2 or vehicle (DMSO) for 30 minutes or 24 h prior to immunoprecipitation with mAb528, mAb806 or an irrelevant isotype control. Immunoblotting was performed with an antibody specific for Y845 of the EGFR, while total de2-7 EGFR was visualized with the rabbit c-terminal polyclonal antibody. Results shown are representative of four independent experiments. […] Mice were treated with 1 mg mAb 806 three times per week for two weeks (days 18, 20, 22, 25, 27 and 29).
Cells were lysed in cold lysis buffer (30 mM HEPES, 150 mM NaCl, 10 mM NaF, 1% Triton X-100, 200 μM NaO3V, 0.4% H2O2 and the protease inhibitor cocktail set 1 (Calbiochem, San Diego, Calif.) containing 500 μM AEBSF, 150 nM Aprotinin, 1 μM E-64 protease inhibitor, 0.5 mM EDTA and 1 μM Leupeptin, pH 7.4). Lysates were immunoprecipitated with the mAb 806 or 528 and the resultant precipitates analyzed by immunoblotting as described by us in detail (21).
Activation of the wt EGFR leads to the transient activation of Src kinase. In a synergistic manner, activation of Src leads to phosphorylation tyrosine 845 (Y845) on the EGFR, which is not an auto-phosphorylation site rather a target for Src phosphorylation (24). Using an antibody specific to Y845 we examined the phosphorylation of Y845 in the de2-7 EGFR.
On the technique in general: Immunoblotting shows a protein as a band on a membrane.

For assay [7], the system named is Patients with NSCLC. The conditions noted are these: full text: Patients with activating mutations in the EGFR kinase domain more likely to respond; not all patients with mutations respond; cited from earlier work.
Assay [8] deals with A431 and MDA-468 breast cancer cells in vitro. To be noted: full text: Sustained signaling through Akt causes resistance. Presence of PTEN increases effectiveness of EGFR therapeutics; no in vivo data; cited from earlier work.
Assay [9] deals with Multiple cell lines in vitro. To be noted: full text: Sensitivity correlated with wt EGFR number. Constitutive active MAPK increased resistance; no in vivo data; cited from earlier work.
Assay [10] has as its system Multiple cell lines in vitro and xenografts. The conditions noted are these: full text: More difficult to inhibit the phosphorylation of EGFR in the presence of ErbB2; cited from earlier work.
The subject of assay [11] is Patients with colorectal cancer. The conditions noted are these: full text: Response correlated with increase in EGFR copy number; small sample numbers; cited from earlier work.
The test system of assay [12] is Multiple cell lines in vitro and xenografts. To be noted: full text: Sensitivity correlated with wt EGFR number; cited from earlier work.

As to `COc1cc2ncnc(Nc3cccc(Cl)c3)c2cc1OC` [AG1478], in [1], the Observation entry is “Resistant glioma”. For the molecule `Cc1[nH]c2ncnc(Nc3cccc(Cl)c3)c2c1C` [CGP59326], in [2], the Observation result was “Activation of erbB2/3”. Turning to `C#Cc1cccc(Nc2ncnc3cc(OCCOC)c(OCCOC)cc23)c1` [OSI-774], in assay [3], the Observation entry was “A secondary mutation”.

`COc1cc2ncnc(Nc3cccc(Br)c3)c2cc1OC` [PD153035]: the Observation entry was “Sensitivity correlated” in [4] and “Sustained signaling” in assay [5].

Take `CC(C)(C)n1nc(-c2ccc(Cl)cc2)c2c(N)ncnc21` [PP2, (4-chlorophenyl)-7-(t-butyl)pyrazolo[3,4-d]-pyrimidine]: in assay [6], the “Phosphorylation at Y845 of de2-7 EGFR” value is reported as “rapidly blocked” and the “autophosphorylation site at Y1173 of de2-7 EGFR” value is “relatively unaffected”. For `COc1cc2ncnc(Nc3ccc(F)c(Cl)c3)c2cc1OCCCN1CCOCC1` [ZD1839], the Observation entry in assay [7] is “Patients with activating”; in [8], “Sustained signaling”; in assay [5] it was “Sustained signaling”; in assay [9] it was “Sensitivity correlated”; in assay [3] it was “A secondary mutation”; in assay [10] it was “More difficult to inhibit”.

As for “ABX: monoclonal antibody directed to the EGFR”, the Observation result in assay [11] was “Response correlated”.

B1: EMD72000: EGFR inhibitor listed in Table 1 (antibody, chains of the INN, looked up, V domains shown)
VH: QVQLVQSGAEVKKPGASVKVSCKASGYTFTSHWMHWVRQAPGQGLEWIGEFNPSNGRTNYNEKFKSKATMTVDTSTNTAYMELSSLRSEDTAVYYCASRDYDYDGRYFDYWGQGTLVTVSS
VL: DIQMTQSPSSLSASVGDRVTITCSASSSVTYMYWYQQKPGKAPKLLIYDTSNLASGVPSRFSGSGSGTDYTFTISSLQPEDIATYYCQQWSSHIFTFGQGTKVEIK
B1: the Observation result in assay [12] is recorded as “Sensitivity correlated”.
